Laboratory results from US7176222B2, “Syntheses of ureas” (Cytokinetics, Inc., priority 2004, dated 2007).

melting point: 145 °C
Compound: CC(=O)N1CCC[C@@H](Oc2cc(F)cc(NC(=O)Nc3cccnc3)c2)C1 [Example 1, (R)-1-[3-(1-Acetyl-piperidin-3-yloxy)-5-fluoro-phenyl]-3-pyridin-3-yl-urea]
